In test [1] the target is T1, Fatty-acid amide hydrolase 1 (Mus musculus, UniProt O08914).
T1 sequence (O08914 whole entry): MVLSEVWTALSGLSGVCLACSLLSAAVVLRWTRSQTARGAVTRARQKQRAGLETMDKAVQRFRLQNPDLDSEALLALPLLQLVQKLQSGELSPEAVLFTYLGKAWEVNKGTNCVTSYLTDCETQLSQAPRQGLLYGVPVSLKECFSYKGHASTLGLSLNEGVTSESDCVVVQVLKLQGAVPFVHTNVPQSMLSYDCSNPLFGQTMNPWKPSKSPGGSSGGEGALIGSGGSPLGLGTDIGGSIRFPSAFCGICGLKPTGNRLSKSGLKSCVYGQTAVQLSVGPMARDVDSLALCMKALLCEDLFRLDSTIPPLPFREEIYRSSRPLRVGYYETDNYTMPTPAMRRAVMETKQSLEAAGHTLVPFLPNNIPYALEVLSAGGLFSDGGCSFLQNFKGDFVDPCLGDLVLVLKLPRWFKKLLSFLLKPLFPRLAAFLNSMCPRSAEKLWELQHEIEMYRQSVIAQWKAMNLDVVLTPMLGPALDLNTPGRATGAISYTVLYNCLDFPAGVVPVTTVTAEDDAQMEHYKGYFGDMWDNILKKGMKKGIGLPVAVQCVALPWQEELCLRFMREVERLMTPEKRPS
As to the kind of experiment: (§1) In Vitro Competitive Activity-Based Protein Profiling: Proteomes (mouse brain membrane fraction or cell lysates for mouse assays; human prefrontal cortex or cell membrane fractions for human assays) (50 μL, 1.0 mg/mL total protein concentration) were preincubated with varying concentrations of inhibitors at 37° C. After 30 min, FP—Rh or HT-01 (1.0 μL, 50 μM in DMSO) was added and the mixture was incubated for another 30 min at 37° C. Reactions were quenched with SDS loading buffer (15 μL-4×) and run on SDS-PAGE. Following gel imaging, serine hydrolase activity was determined by measuring fluorescent intensity of gel bands corresponding to MAGL and FAAH using ImageJ 1.43u software.Preparation of Mouse Brain Proteomes from Inhibitor Treated Mice.Inhibitors were administered to wild-type C57Bl/6J by oral gavage in a vehicle of polyethylene glycol. Each animal was sacrificed 4 h following administration and brain proteomes were prepared and analyzed according to previously established methods (See Niphakis, M. J., et al. (2011) ACS Chem. Neurosci. and Long, J. Z., et al. Nat. Chem. Biol. 5:37-44).

In the next test the target is T2, Monoglyceride lipase (Mus musculus, UniProt O35678).
T2 sequence (O35678 whole entry): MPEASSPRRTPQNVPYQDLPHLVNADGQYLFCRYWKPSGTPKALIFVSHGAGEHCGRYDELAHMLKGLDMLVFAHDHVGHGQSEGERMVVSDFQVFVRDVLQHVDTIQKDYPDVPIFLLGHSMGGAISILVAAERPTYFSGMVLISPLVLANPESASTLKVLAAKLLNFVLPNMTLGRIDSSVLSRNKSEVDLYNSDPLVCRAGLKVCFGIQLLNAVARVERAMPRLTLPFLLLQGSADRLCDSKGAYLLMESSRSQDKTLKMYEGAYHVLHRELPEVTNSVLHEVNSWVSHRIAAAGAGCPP
The description is as §1.

For orientation: IC50 means the concentration that gives 50% inhibition. As for `CC(=O)N(C)c1cnn(C(=O)N2CC3CN(Cc4cc(Cl)cc(N5CCC6(CCOCC6)C5)c4)CC3C2)c1` (stereo not given), the IC50 (in test [1]; on Monoglyceride lipase) was below 100 nM throughout.

In the case of `CC(=O)N(C)c1cnn(C(=O)N2CC3CN(Cc4cccc(Oc5ccccn5)c4)CC3C2)c1` (stereo not given), the IC50 in test [1] was below 100 nM.

Turning to `CC(=O)N(C)c1cnn(C(=O)N2CCN(Cc3ccc(C(F)(F)F)cc3)CC2)c1`, the concentration for half-maximal inhibition (IC50) at Monoglyceride lipase is below 100 nM.

Take `CC(=O)N(C)c1cnn(C(=O)N2CCN(Cc3ccc(Cl)c(Cl)c3)CC2)c1`: the IC50 at Monoglyceride lipase was below 100 nM.

The values are drawn from ChEMBL document CHEMBL5727116, “Pyrazole compounds and methods of making and using same” (2019).
